Assays:
Human Pan T cells = assay: IL-2 Release Detection Assay; assay type: cell-based; details: for Activation fold: Top activation/DMSO control; for Activation % at 100 nM: fitted curve at 100 nM/DMSO control*100%
Experimental: Add dilutions of compounds into the cells and incubate at 37° C. &5% CO2 for 24 hours. IL-2 in cell supernatant was detected by ELISA Kit (R&D, DY202). […] Top and Bottom: Plateaus in same units as Y. LogEC50: same log units as X. Activation fold: Top activation/DMSO control. Activation % at 100 nM: Activation of non-linear regression equation curve at the concentration of 100 nM/DMSO control*100%.

DGKA = DGKA (Homo sapiens (Human), UniProt P23743); assay: DGKA Inhibition ADP-Glo Assay; assay type: biochemical; details: 40 μM ATP, 200 μM DLG in substrate working solution, 25° C., 60 min
Sequence of DGKA (P23743 whole entry): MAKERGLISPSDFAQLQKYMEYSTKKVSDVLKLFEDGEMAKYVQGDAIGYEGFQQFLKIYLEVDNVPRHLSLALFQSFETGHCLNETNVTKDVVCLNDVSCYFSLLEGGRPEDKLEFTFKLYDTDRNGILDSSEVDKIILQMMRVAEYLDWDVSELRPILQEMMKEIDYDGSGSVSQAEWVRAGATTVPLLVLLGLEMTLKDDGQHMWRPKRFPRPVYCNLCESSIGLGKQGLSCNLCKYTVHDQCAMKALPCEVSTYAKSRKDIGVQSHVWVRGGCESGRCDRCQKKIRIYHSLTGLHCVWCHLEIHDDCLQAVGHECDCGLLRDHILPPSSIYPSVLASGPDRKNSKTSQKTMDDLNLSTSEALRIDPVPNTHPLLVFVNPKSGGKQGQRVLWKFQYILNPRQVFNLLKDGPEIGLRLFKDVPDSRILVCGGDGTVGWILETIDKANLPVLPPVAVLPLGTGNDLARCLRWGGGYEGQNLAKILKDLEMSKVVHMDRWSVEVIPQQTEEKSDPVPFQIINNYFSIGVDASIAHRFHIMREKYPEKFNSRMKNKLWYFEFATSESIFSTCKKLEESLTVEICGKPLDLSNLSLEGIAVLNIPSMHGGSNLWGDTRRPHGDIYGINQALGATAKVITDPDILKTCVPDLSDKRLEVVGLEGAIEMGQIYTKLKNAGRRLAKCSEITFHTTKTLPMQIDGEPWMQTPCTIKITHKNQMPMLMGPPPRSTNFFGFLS
Experimental: The DGKA inhibition reactions were performed using ADP-Glo assay. The reactions were carried out in 50 mM HEPES, 100 mM NaCl, 10 mM MgCl2, 1 mM CaCl2, 0.005% TritonX-100 and 1 mM DTT as working solution (pH=7.5). 30 nL DMSO solution of each test compound (Top concentration 0.4 μM with 10 point, 4-fold dilution series for each compound) were transferred to 384 well plate by Echo and 5 μL DGKA (SignalChem, D21-10BG) enzyme working solution at 2×final reaction concentration was added to each well. After incubated at 25° C. for 15 minutes, 5 μL substrate working solution contain 40 μM ATP (Promega, V915B) and 200 μM DLG (SignalChem, D430-59) were added to initiate reaction. After enzymatic reaction at 25° C. for 60 min, ADP Glo assay reagents (Promega, V9102) were added and luminescence was recorded using an EnVision following the instruction of manual. […] The IC50 value was calculated via a regression analysis of the inhibition rate.

SMILES	Activation fold (Human Pan T cells)	Activation % at 100 nM (Human Pan T cells) [%]	IC50 (DGKA) [nM]
Cc1ccc2oc(C3CCN(c4cc(=O)n(C)c5cc(NCCO)c(C#N)nc45)CC3)nc2c1 [Example 18, 3-((2-hydroxyethyl)amino)-5-methyl-8-(4-(5-methylbenzo[d]oxazol-2-yl)piperidin-1-yl)-6-oxo-5,6-dihydro-1,5-naphthyridine-2-carbonitrile]	6.9	355	0.1
Cc1ccc2oc(C3CCN(c4cc(=O)n(C)c5cc(OC6CCOCC6)c(C#N)nc45)CC3)nc2c1 [Example 25, 5-methyl-8-(4-(5-methylbenzo[d]oxazol-2-yl)piperidin-1-yl)-6-oxo-3-((tetrahydro-2H-pyran-4-yl)oxy)-5,6-dihydro-1,5-naphthyridine-2-carbonitrile]	–	–	5.29
Cc1ccc2oc(C3CCN(c4cc(=O)n(C)c5cc(OC6CCOC6)c(C#N)nc45)CC3)nc2c1 (stereo not drawn) [Example 21, 5-methyl-8-(4-(5-methylbenzo[d]oxazol-2-yl)piperidin-1-yl)-6-oxo-3-((tetrahydrofuran-3-yl)oxy)-5,6-dihydro-1,5-naphthyridine-2-carbonitrile]	10.1	520	0.23
Cc1ccc2oc(C3CCN(c4cc(=O)n(C)c5ccc(F)cc45)CC3)nc2c1 [Example 6, 6-fluoro-1-methyl-4-(4-(5-methylbenzo[d]oxazol-2-yl)piperidin-1-yl)quinolin-2(1H)-one]	–	–	1.23
Cc1ccc2oc(C3CCN(c4nc(=O)n(C)c5ccc(C#N)cc45)CC3)nc2c1 [Example 5, 1-methyl-4-(4-(5-methylbenzo[d]oxazol-2-yl)piperidin-1-yl)-2-oxo-1,2-dihydroquinazoline-6-carbonitrile]	–	–	103
COCCOc1cc2c(nc1Cl)c(N1CCC(c3nc4cc(C)ccc4o3)CC1)cc(=O)n2C [Example 15, 6-chloro-7-(2-methoxyethoxy)-1-methyl-4-(4-(5-methylbenzo[d]oxazol-2-yl)piperidin-1-yl)-1,5-naphthyridin-2(1H)-one]	6.5	214	0.19
Cc1ccc2oc(C3CCN(c4cc(=O)n(C)c5cc(OCCO)c(Cl)nc45)CC3)nc2c1 [Example 22, 6-chloro-7-(2-hydroxyethoxy)-1-methyl-4-(4-(5-methylbenzo[d]oxazol-2-yl)piperidin-1-yl)-1,5-naphthyridin-2(1H)-one]	–	–	0.15
Cc1ccc2oc(C3CCN(c4cc(=O)n(C)c5ccc(Cl)nc45)CC3)nc2c1 [Example 10, 6-chloro-1-methyl-4-(4-(5-methylbenzo[d]oxazol-2-yl)piperidin-1-yl)-1,5-naphthyridin-2(1H)-one]	7.3	143	0.36
Cc1ccc2oc(N3CC=C(c4cc(=O)n(C)c5cc(OCCO)c(C#N)nc45)CC3)nc2c1 [Example 30, 3-(2-hydroxyethoxy)-5-methyl-8-(1-(5-methylbenzo[d]oxazol-2-yl)-1,2,3,6-tetrahydropyridin-4-yl)-6-oxo-5,6-dihydro-1,5-naphthyridine-2-carbonitrile]	11.0	244	0.65
COCCOc1cc2c(nc1C#N)c(N1CCC(c3nc4cc(C)ccc4o3)CC1)cc(=O)n2C [Example 16, 3-(2-methoxyethoxy)-5-methyl-8-(4-(5-methylbenzo[d]oxazol-2-yl)piperidin-1-yl)-6-oxo-5,6-dihydro-1,5-naphthyridine-2-carbonitrile]	6.29	253	0.35
Cc1ccc2oc(C3CCN(c4cc(=O)n(C)c5cc(OCCN)c(C#N)nc45)CC3)nc2c1 [Example 26, 3-(2-aminoethoxy)-5-methyl-8-(4-(5-methylbenzo[d]oxazol-2-yl)piperidin-1-yl)-6-oxo-5,6-dihydro-1,5-naphthyridine-2-carbonitrile]	–	–	3.34
Cc1ccc2oc(C3CCN(c4cc(=O)n(C)c5cc(NCCO)c(Cl)nc45)CC3)nc2c1 [Example 17, 6-chloro-7-((2-hydroxyethyl)amino)-1-methyl-4-(4-(5-methylbenzo[d]oxazol-2-yl)piperidin-1-yl)-1,5-naphthyridin-2(1H)-one]	8.2	159	0.12
Cc1ccc2oc(C3CCN(c4cc(=O)n(C)c5ccc(Cl)cc45)CC3)nc2c1 [Example 2, 6-chloro-1-methyl-4-(4-(5-methylbenzo[d]oxazol-2-yl)piperidin-1-yl)quinolin-2(1H)-one]	5.3	234	0.47
Cc1ccc2oc(C3CCN(c4cc(=O)n(C)c5cc(OCCCO)c(C#N)nc45)CC3)nc2c1 [Example 24, 3-(3-hydroxypropoxy)-5-methyl-8-(4-(5-methylbenzo[d]oxazol-2-yl)piperidin-1-yl)-6-oxo-5,6-dihydro-1,5-naphthyridine-2-carbonitrile]	25.6	679	0.31
Cc1ccc2oc(C3CCN(c4cc(=O)n(C)c5ccc(C#N)cc45)CC3)nc2c1 [Example 3, 1-methyl-4-(4-(5-methylbenzo[d]oxazol-2-yl)piperidin-1-yl)-2-oxo-1,2-dihydroquinoline-6-carbonitrile]	7.8	370	2.35
Cn1c(=O)cc(N2CCC(c3nc4cc(F)ccc4o3)CC2)c2nc(Cl)ccc21 [Example 11, 6-chloro-4-(4-(5-fluorobenzo[d]oxazol-2-yl)piperidin-1-yl)-1-methyl-1,5-naphthyridin-2(1H)-one]	6.1	169	0.66
Cc1ccc2oc(C3CCN(c4nc(=O)n(C)c5ccc(F)cc45)CC3)nc2c1 [Example 7, 6-fluoro-1-methyl-4-(4-(5-methylbenzo[d]oxazol-2-yl)piperidin-1-yl)quinazolin-2(1H)-one]	–	–	16
Cc1ccc2oc(C3CCN(c4nc(=O)n(C)c5ccc(Cl)cc45)CC3)nc2c1 [Example 4, 6-chloro-1-methyl-4-(4-(5-methylbenzo[d]oxazol-2-yl)piperidin-1-yl)quinazolin-2(1H)-one]	3.5	211	4.43
Cc1ccc2oc(C3CCN(c4c(C#N)c(=O)n(C)c5ccc(Cl)nc45)CC3)nc2c1 [Example 9, 6-chloro-1-methyl-4-(4-(5-methylbenzo[d]oxazol-2-yl)piperidin-1-yl)-2-oxo-1,2-dihydro-1,5-naphthyridine-3-carbonitrile]	7.7	206	2.04
Cc1ccc2oc(C3CCN(c4nc(=O)n(C)c5ccc(C#N)nc45)CC3)nc2c1 [Example 14, 1-methyl-4-(4-(5-methylbenzo[d]oxazol-2-yl)piperidin-1-yl)-2-oxo-1,2-dihydropyrido[3,2-d]pyrimidine-6-carbonitrile]	–	–	143
Cc1ccc2oc(C3CCN(c4cc(=O)n(C)c5cc(NCCO)cnc45)CC3)nc2c1 [Example 19, 7-((2-hydroxyethyl)amino)-1-methyl-4-(4-(5-methylbenzo[d]oxazol-2-yl)piperidin-1-yl)-1,5-naphthyridin-2(1H)-one]	–	–	2.36
Cc1ccc2oc(C3CCN(c4cc(=O)n(C)c5cc(OC6CCOC6)c(Cl)nc45)CC3)nc2c1 (stereo not drawn) [Example 20, 6-chloro-1-methyl-4-(4-(5-methylbenzo[d]oxazol-2-yl)piperidin-1-yl)-7-((tetrahydrofuran-3-yl)oxy)-1,5-naphthyridin-2(1H)-one]	–	–	0.13
Cc1ccc2oc(C3CCN(c4cc(=O)n(C)c5cc(OC6CCNC6)c(C#N)nc45)CC3)nc2c1 (stereo not drawn) [Example 27, 5-methyl-8-(4-(5-methylbenzo[d]oxazol-2-yl)piperidin-1-yl)-6-oxo-3-(pyrrolidin-3-yloxy)-5,6-dihydro-1,5-naphthyridine-2-carbonitrile]	–	–	13.6
Cc1ccc2oc(N3[C@@H]4CC[C@H]3CN(c3c(C#N)c(=O)n(C)c5ccc(F)cc35)C4)nc2c1 [Example 8, 6-fluoro-1-methyl-4-((1R,5S)-8-(5-methylbenzo[d]oxazol-2-yl)-3,8-diazabicyclo[3.2.1]octan-3-yl)-2-oxo-1,2-dihydroquinoline-3-carbonitrile]	–	–	7.74
Cc1ccc2oc(C3CCN(c4cc(=O)n(C)c5cc(O[C@H]6CCOC6)c(C#N)nc45)CC3)nc2c1 [Example 29, (S)-5-methyl-8-(4-(5-methylbenzo[d]oxazol-2-yl)piperidin-1-yl)-6-oxo-3-((tetrahydrofuran-3-yl)oxy)-5,6-dihydro-1,5-naphthyridine-2-carbonitrile]	8.5	292	0.7
Cc1ccc2oc(C3CCN(c4nc(=O)n(C)c5ccc(Cl)nc45)CC3)nc2c1 [Example 13, 6-chloro-1-methyl-4-(4-(5-methylbenzo[d]oxazol-2-yl)piperidin-1-yl)pyrido[3,2-d]pyrimidin-2(1H)-one]	–	–	4.11
